Reference: paper PMC7855930, “Nontoxic Cobalt(III) Schiff Base Complexes with Broad‐Spectrum Antifungal Activity” (Chemistry (Weinheim an Der Bergstrasse, Germany), 2020)
Converted amounts (≈) assume the structure as drawn. Read-outs that look alike come from different tables or passages of the source. Starred links: 1 amine or outer side, 2 acyl side, 3 side chain; linkers in the order of their positions; H or OH if unused. Positions of bridges follow the written chain, without caps; N, C: chain ends. Non-standard residues stand in square brackets, D forms with d. Residues, ends and D or L forms follow the SMILES beside them. *: point of attachment. hTyr(3S-OH,4S-OH,3'-OSO3H) = N[C@H](C(=O)O)[C@H](O)[C@@H](O)c1ccc(O)c(OS(=O)(=O)O)c1; Orn(4R-OH,5R-OH) = O=C([C@H](C[C@@H](O)[C@@H](O)N[*:3])N[*:1])[*:2]; Pro(3S-OH,4S-Me) = C[C@H]1CN[C@H](C(=O)O)[C@H]1O; X1 = CCCCCOc1ccc(-c2cc(-c3ccc(C(=O)*)cc3)no2)cc1; Gln(3R-OH) = NC(=O)C[C@@H](O)[C@H](N)C(=O)O; Hyp = O=C(O)[C@@H]1C[C@@H](O)CN1

Assays:
[1] = system: Klebsiella pneumoniae ATCC 700603 (K6; ESBL SHV-18); format: cell-based; details: CAMHB, 37 °C, 18 h, ≥ 80% inhibition
Description: (§1) CO-ADD High Throughput Screening
(§2) Bacterial broth microdilution minimum inhibitory concentration (MIC) assay Bacterial strains were cultured in Cation-adjusted Mueller Hinton broth (CAMHB; Bacto Laboratories 212322) at 37 °C overnight. A sample of each culture was then diluted 40-fold in fresh CAMHB and incubated at 37 °C for 1.5-3 h. The resultant mid-log phase cultures were diluted with CAMHB (CFU/mL measured by OD600), then added to each well of the compound-containing plates (384-well non-binding surface (NBS) plates; Corning CLS3640), giving a cell density of 5 × 10^5 CFU/mL and a total volume of 50 µL. Plates were covered and incubated at 37 °C for 18 h without shaking. Inhibition of bacterial growth was determined measuring absorbance at 600 nm (OD600), using media only as negative control and bacteria without inhibitors as positive control. MIC values were determined as the lowest concentration at which the growth was inhibited at ≥ 80%. Colistin sulfate (Sigma C4461) and vancomycin HCl (Sigma 861987) were used as positive inhibitor controls on each plate for Gram-negative and Gram-positive bacteria, respectively.
(§3) Figure S1. 1H NMR (400 MHz) of [Co(ATS)(DMAP)2]NO3 (3) in DMSO-d6.
(§4) (1 picture or pasted object on this page, not shown here)

[2] = system: Pseudomonas aeruginosa ATCC 27853; test: CO-ADD bacterial broth microdilution MIC assay; format: cell-based; details: CAMHB, 37 °C, 18 h, ≥ 80% inhibition
Description: as §1, §2, §3, §4

[3] = system: Escherichia coli ATCC 25922; test: CO-ADD bacterial broth microdilution MIC assay; format: cell-based; details: CAMHB, 37 °C, 18 h, ≥ 80% inhibition
Description: as §1, §2, §3, §4

[4] = system: Acinetobacter baumannii ATCC 19606; test: CO-ADD bacterial broth microdilution MIC assay; format: cell-based; details: CAMHB, 37 °C, 18 h, ≥ 80% inhibition
Description: as §1, §2, §3, §4

[5] = system: Staphylococcus aureus ATCC 43300 (MRSA); test: CO-ADD bacterial broth microdilution MIC assay; format: cell-based; details: Staphylococcus aureus, 18 h, read-out: MIC Sa (Staphylococcus aureus ATCC 43300, MRSA)
Description: as §1, §2, §3, §4

[6] = system: C. neoformans ATCC 208821; test: Antifungal MIC assay (broth microdilution in YNB); format: cell-based, Cryptococcus neoformans; details: Cryptococcus neoformans
Description: (§5) Yeast strains: Candida albicans (ATCC 90028, NCCLS 11), Cryptococcus neoformans (ATCC 208821, H99 type strain), Candida tropicalis (ATCC 750, type strain), Candida glabrata (ATCC 90030, NCCLS 84) and Cryptococcus deuterogattii (ATCC 32609, type strain) were obtained from the American Type Culture Collection (ATCC). Cryptococcus deuterogattii (CBS 7750), Candida auris (CBS 10913) and Candida auris (CBS 12373) were obtained from the CBS‐KNAW culture collection. The strains were maintained on glycerol/YPD (yeast extract‐peptone dextrose) broth (20:80 v/v) at −80 °C.
(§6) Antifungal minimum inhibitory concentration (MIC) assay: The cobalt complexes and antifungal control compounds were serially diluted in 50 μL of Yeast Nitrogen Broth (YNB; BD, Cat No. 233520 supplemented with 2 % glucose and 10 mM ammonium sulfate) two‐fold across the wells of non‐binding surface (NBS) 96‐well plates (Corning; Cat. No. 3641). Plates were set up in quadruplicate for each strain tested, and two biological replicates were conducted on separate assay days.
(§7) Yeast strains were cultured from glycerol onto YPD (Becton Dickinson 242720) agar at 30 °C for 72 h. For each strain, a minimum of five single colonies were taken from the agar plate and dissolved in sterile water and adjusted to form a yeast suspension of 1×10^6 to 5×10^6 CFU mL^−1 (as determined by OD530). The suspension was subsequently diluted into YNB media, and added to each well of the compound containing plates, giving a final cell density of 2.5×10^3 CFU mL^−1 and a total volume of 100 μL. Plates were covered and incubated at 35 °C for 36 h without shaking.
(§8) Growth inhibition of all strains was determined visually where the MIC was recorded as the lowest compound concentration with no visible growth. Fluconazole (Sigma F8929), ketoconazole (Sigma K1003) and micafungin (Sigma SML2288) were used as internal positive inhibitor controls for every strain tested.

C. glabrata ATCC 90030 = test: Antifungal MIC assay (broth microdilution in YNB); format: cell-based, Candida glabrata; details: Nakaseomyces glabratus
Description: as §5, §6, §7, §8

C. albicans ATCC 90028 = test: Antifungal MIC assay (broth microdilution in YNB); format: cell-based, Candida albicans; details: Candida albicans
Description: as §5, §6, §7, §8

C. tropicalis ATCC 750 = test: Antifungal MIC assay (broth microdilution in YNB); format: cell-based, Candida tropicalis; details: Candida tropicalis
Description: as §5, §6, §7, §8

[7] = system: C. deuterogattii ATCC 32609; test: Antifungal MIC assay (broth microdilution in YNB); format: cell-based, Cryptococcus deuterogattii; details: Cryptococcus deuterogattii
Description: as §5, §6, §7, §8

[8] = system: C. deuterogattii CBS 7750; test: Antifungal MIC assay (broth microdilution in YNB); format: cell-based, Cryptococcus deuterogattii; details: Cryptococcus deuterogattii
Description: as §5, §6, §7, §8

C. auris CBS 12373 = test: Antifungal MIC assay (broth microdilution in YNB); format: cell-based, Candida auris; details: Candidozyma auris
Description: as §5, §6, §7, §8

C. auris CBS 10913 = test: Antifungal MIC assay (broth microdilution in YNB); format: cell-based, Candida auris; details: Candidozyma auris
Description: as §5, §6, §7, §8

[9] = ATCC208821, Table S1, read-out: MIC Cryptococcus neoformans ATCC 208821
[10] = ATCC208821, range of MICs, n=8, 35 °C, 36 h, visual, read-out: MIC C. neoformans ATCC 208821
[11] = ATCC90030, Table S1, read-out: MIC Candida glabrata ATCC 90030
[12] = ATCC90030, range of MICs, n=8, 35 °C, 36 h, visual, read-out: MIC C. glabrata ATCC 90030
[13] = ATCC90028, Table S1, read-out: MIC Candida albicans ATCC 90028
[14] = ATCC90028, range of MICs, n=8, 35 °C, 36 h, visual, read-out: MIC C. albicans ATCC 90028
[15] = ATCC750, Table S1, read-out: MIC Candida tropicalis ATCC 750
[16] = ATCC750, range of MICs, n=8, 35 °C, 36 h, visual, read-out: MIC C. tropicalis ATCC 750
[17] = ATCC32609, Table S1, read-out: MIC Cryptococcus deuterogattii ATCC 32609
[18] = ATCC32609, range of MICs, n=8, 35 °C, 36 h, visual, read-out: MIC C. deuterogattii ATCC 32609
[19] = CBS7750, Table S1, read-out: MIC Cryptococcus deuterogattii CBS 7750
[20] = CBS7750, range of MICs, n=8, 35 °C, 36 h, visual, read-out: MIC C. deuterogattii CBS 7750
[21] = CBS12373, Table S1, read-out: MIC Candida auris CBS 12373
[22] = CBS12373, range of MICs, n=8, 35 °C, 36 h, visual, read-out: MIC C. auris CBS 12373
[23] = CBS10913, Table S1, read-out: MIC Candida auris CBS 10913
[24] = CBS10913, range of MICs, n=8, 35 °C, 36 h, visual, read-out: MIC C. auris CBS 10913

| Molecule | MIC [6, 9] [µg/mL] | MIC [6, 10] [µM] | MIC (C. glabrata ATCC 90030; [11]) [µg/mL] | MIC (C. glabrata ATCC 90030; [12]) [µM] | MIC (C. albicans ATCC 90028; [13]) [µg/mL] | MIC (C. albicans ATCC 90028; [14]) [µM] | MIC (C. tropicalis ATCC 750; [15]) [µg/mL] | MIC (C. tropicalis ATCC 750; [16]) [µM] | MIC [7, 17] [µg/mL] | MIC [7, 18] [µM] | MIC [8, 19] [µg/mL] | MIC [8, 20] [µM] | MIC (C. auris CBS 12373; [21]) [µg/mL] | MIC (C. auris CBS 12373; [22]) [µM] | MIC (C. auris CBS 10913; [23]) [µg/mL] | MIC (C. auris CBS 10913; [24]) [µM] | other results |
| --- | --- | --- | --- | --- | --- | --- | --- | --- | --- | --- | --- | --- | --- | --- | --- | --- | --- |
| Colistin [reference compound] |  |  |  |  |  |  |  |  |  |  |  |  |  |  |  |  | MIC Kp (Klebsiella pneumoniae ATCC 700603) [1]: 0.25 µg/mL; MIC Pa (Pseudomonas aeruginosa ATCC 27853) [2]: 0.25 µg/mL; MIC Ec (Escherichia coli ATCC 25922) [3]: 0.125 µg/mL; MIC Ab (Acinetobacter baumannii ATCC 19606) [4]: 0.25 µg/mL |
| CN[C@H](CC(C)C)C(=O)N[C@H]1C(=O)N[C@@H](CC(N)=O)C(=O)N[C@H]2C(=O)N[C@H]3C(=O)N[C@H](C(=O)N[C@H](C(=O)O)c4cc(O)cc(O)c4-c4cc3ccc4O)[C@H](O)c3ccc(c(Cl)c3)Oc3cc2cc(c3O[C@@H]2O[C@H](CO)[C@@H](O)[C@H](O)[C@H]2O[C@H]2C[C@](C)(N)[C@H](O)[C@H](C)O2)Oc2ccc(cc2Cl)[C@H]1O [Van, Vancomycin, reference compound] |  |  |  |  |  |  |  |  |  |  |  |  |  |  |  |  | MIC [5]: 1 µg/mL (≈ 0.69 µM) |
| CCCCCOc1ccc(-c2cc(-c3ccc(C(=O)N[C@H]4C[C@@H](O)[C@@H](O)NC(=O)[C@@H]5[C@@H](O)[C@@H](C)CN5C(=O)[C@H]([C@H](O)CC(N)=O)NC(=O)[C@H]([C@H](O)[C@@H](O)c5ccc(O)c(OS(=O)(=O)O)c5)NC(=O)[C@@H]5C[C@@H](O)CN5C(=O)[C@H]([C@@H](C)O)NC4=O)cc3)no2)cc1 [MFG, Micafungin, reference compound] (X1-[Orn(4R-OH,5R-OH)]T[Hyp][hTyr(3S-OH,4S-OH,3'-OSO3H)][Gln(3R-OH)][Pro(3S-OH,4S-Me)]; lactam 1-C) |  |  |  |  |  |  |  |  |  |  |  |  |  |  |  |  | MIC ([6]; ATCC208821, 36 h, read-out: MIC C. neoformans ATCC 208821): > 49.5 µM; MIC ([6]; ATCC208821, read-out: MIC Cryptococcus neoformans ATCC 208821): > 64 µg/mL; MIC (C. glabrata ATCC 90030; ATCC90030, 36 h, read-out: MIC C. glabrata ATCC 90030): ≤ 0.39 µM; MIC (C. glabrata ATCC 90030; ATCC90030, read-out: MIC Candida glabrata ATCC 90030): 0.5 µg/mL; MIC (C. albicans ATCC 90028; ATCC90028, 36 h, read-out: MIC C. albicans ATCC 90028): ≤ 0.39 µM; MIC (C. albicans ATCC 90028; ATCC90028, read-out: MIC Candida albicans ATCC 90028): 0.5 µg/mL; MIC (C. tropicalis ATCC 750; ATCC750, 36 h, read-out: MIC C. tropicalis ATCC 750): ≤ 0.39 µM; MIC (C. tropicalis ATCC 750; ATCC750, read-out: MIC Candida tropicalis ATCC 750): 0.5 µg/mL; MIC ([7]; ATCC32609, 36 h, read-out: MIC C. deuterogattii ATCC 32609): > 49.5 µM; MIC ([7]; ATCC32609, read-out: MIC Cryptococcus deuterogattii ATCC 32609): > 64 µg/mL; MIC ([8]; CBS7750, 36 h, read-out: MIC C. deuterogattii CBS 7750): > 49.5 µM; MIC ([8]; CBS7750, read-out: MIC Cryptococcus deuterogattii CBS 7750): > 64 µg/mL; MIC (C. auris CBS 12373; CBS12373, 36 h, read-out: MIC C. auris CBS 12373): ≤ 0.39 µM; MIC (C. auris CBS 12373; CBS12373, read-out: MIC Candida auris CBS 12373): 0.5 µg/mL; MIC (C. auris CBS 10913; CBS10913, 36 h, read-out: MIC C. auris CBS 10913): ≤ 0.39 µM |
| OC(Cn1cncn1)(Cn1cncn1)c1ccc(F)cc1F [FCZ, Fluconazole, reference compound] | 16 | 52.2 | > 64 | > 209 | 2 | 6.53 | > 64 | > 209 | 8 to 16 | 26.1 to 52.2 | 8 | 26.1 | > 64 | > 209 | 16 | 52.2 |  |
| CC(=O)N1CCN(c2ccc(OCC3COC(Cn4ccnc4)(c4ccc(Cl)cc4Cl)O3)cc2)CC1 (stereo not shown) [KCZ, Ketoconazole, reference compound] | 1 to 2 | 1.88 to 3.76 | 32 | 60.2 | 0.5 | ≤ 0.94 | 16 | 30.1 | 1 | 1.88 | 0.5 to 1 | 0.94 to 1.88 | 2 | 3.76 | 0.5 | ≤ 0.94 |  |
